Data on 22 compounds can be found in US8173689B2 (Novartis AG, priority 2006, dated 2012).

In test [1] the target is T1, cytoplasmic domain of the human CSF-1R (Homo sapiens, UniProt P07333).
T1 construct: Recombinant protein corresponding to the cytoplasmic domain of the human CSF-1R; purchased Invitrogen Corporation, Carlsbad, Calif; PV3249
T1 sequence (P07333 539-972 limits assumed): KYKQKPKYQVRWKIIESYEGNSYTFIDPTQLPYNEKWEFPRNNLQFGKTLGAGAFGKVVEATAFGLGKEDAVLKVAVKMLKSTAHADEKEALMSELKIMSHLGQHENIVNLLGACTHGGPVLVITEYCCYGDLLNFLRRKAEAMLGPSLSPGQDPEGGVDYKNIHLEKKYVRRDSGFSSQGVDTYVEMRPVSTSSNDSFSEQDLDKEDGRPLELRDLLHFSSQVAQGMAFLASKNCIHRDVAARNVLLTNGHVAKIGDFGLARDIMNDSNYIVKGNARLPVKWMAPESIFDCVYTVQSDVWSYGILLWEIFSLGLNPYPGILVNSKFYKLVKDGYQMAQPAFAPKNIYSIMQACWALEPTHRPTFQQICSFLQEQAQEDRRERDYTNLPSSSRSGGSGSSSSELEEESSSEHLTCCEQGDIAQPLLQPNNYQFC
The experiment in a line: In vitro kinase assay for colony stimulating factor-1 receptor (AlphaScreen). The note with it: tested at about 1 μM; for inhibition at 1 µM: read-out: CSF-1R percent inhibition. The test is classed as biochemical. Here is the method: The kinase activity of various protein tyrosine kinases can be measured by providing ATP and a suitable peptide or protein tyrosine-containing substrate, and assaying the transfer of phosphate moiety to the tyrosine residue. Recombinant protein corresponding to the cytoplasmic domain of the human CSF-1R was purchased from Invitrogen Corporation, Carlsbad, Calif. U.S.A. (#PV3249). For each assay, test compounds were serially diluted, starting at 25 μM with 3 fold dilutions, in DMSO in 384 well plates then mixed with an appropriate kinase reaction buffer consisting of 50 mM Hepes, 5 mM MgCl2, 10 mM MnCl2, 0.1% BSA, pH 7.5, 1.0 mM dithiothreitol, 0.01% Tween 80 plus 1 μM ATP. […] Added to the stopped reaction mix was 30 μL of PT66 Alphascreen beads (Perkin Elmer, Boston, Mass., U.S.A.). The reaction was incubated overnight and read on the Envision (Perkin Elmer). Phosphorylated peptide product was measured with the AlphaScreen system (Perkin Elmer) using acceptor beads coated with anti-phosphotyrosine antibody PT66 and donor beads coated with streptavidin that emit a fluorescent signal at the 520-620 nm emission wave length if in close proximity.
CSF-1R kinase was added at final concentration of 4 nM.
For orientation: Bead proximity is the source of the signal in Alpha formats.

The next test has as its target T2, kinase domain of PDGFRβ (Homo sapiens, UniProt P09619).
T2 construct: The kinase domain of PDGFRβ was assayed in 50 mM Hepes; purchased Invitrogen P3082
The experiment in a line: Inhibition of PDGFRb kinase signaling in an in vitro biochemical assay (alphascreen). The note with it: tested at about 1 μM; for inhibition at 1 µM: read-out: PDGFRβ percent inhibition. Here is the method: (§1) The IC50 values for the inhibition of RTKs were determined in the alphascreen format measuring the inhibition by compound of phosphate transfer to a substrate by the respective enzyme. Briefly, the respective RTK domain purchased as human recombinant protein (cKIT Upstate #14-559, PDGFRb Invitrogen #P3082) were incubated with serial dilutions of compound in the presence of substrate and ATP concentrations within 3 times the Km of the enzyme.
(§2) Alphascreen PY20 beads were added to the stopped cKIT reactions and PY20 Ab/Protein A Alphascreen beads were added to the PDGFRβ stopped reactions. Both reactions were incubated overnight and read on the Alphascreen reader.

The target in a further test is T3, kinase domain of cKIT (Homo sapiens, UniProt P10721).
T3 construct: The kinase domain of cKIT was assayed in 50 mM Hepes; purchased Upstate 14-559
The experiment in a line: Inhibition of cKIT kinase signaling in an in vitro biochemical assay (alphascreen). The settings on record: tested at about 1 μM; for inhibition at 1 µM: read-out: cKit percent inhibition. Here is the method:
as §1, §2

Like-named read-outs stand apart in the source and are kept apart here.

T3 sequence (P10721 589-937 limits assumed): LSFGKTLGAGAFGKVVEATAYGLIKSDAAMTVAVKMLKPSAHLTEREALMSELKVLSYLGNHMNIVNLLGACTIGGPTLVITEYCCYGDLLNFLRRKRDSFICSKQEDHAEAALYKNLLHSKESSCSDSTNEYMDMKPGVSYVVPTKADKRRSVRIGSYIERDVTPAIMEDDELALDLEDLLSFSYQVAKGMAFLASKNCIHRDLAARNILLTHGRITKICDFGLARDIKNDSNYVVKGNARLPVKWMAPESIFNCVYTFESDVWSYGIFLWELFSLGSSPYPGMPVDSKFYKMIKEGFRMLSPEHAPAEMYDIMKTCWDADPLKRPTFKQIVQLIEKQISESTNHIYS
T2 sequence (P09619 600-962 limits assumed): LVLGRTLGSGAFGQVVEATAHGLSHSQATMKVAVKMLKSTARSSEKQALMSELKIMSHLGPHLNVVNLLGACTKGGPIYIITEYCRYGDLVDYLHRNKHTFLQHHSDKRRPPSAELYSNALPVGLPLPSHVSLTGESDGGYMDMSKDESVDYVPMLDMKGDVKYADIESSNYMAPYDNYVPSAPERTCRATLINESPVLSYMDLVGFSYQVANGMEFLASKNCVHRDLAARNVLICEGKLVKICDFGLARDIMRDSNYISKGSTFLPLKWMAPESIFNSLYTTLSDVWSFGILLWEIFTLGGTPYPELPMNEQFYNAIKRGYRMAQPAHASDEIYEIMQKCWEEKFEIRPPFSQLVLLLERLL

`CNC(=O)c1cc(Oc2ccc3nc(NC(C)C)oc3c2)ccn1` [Compound 98, 4-(2-Isopropylamino-benzo-oxazol-6-yloxy)-pyridine-2-carboxylic acid methylamide]: the results for the inhibition at 1 µM (in test [1]; on kinase domain of PDGFRβ; at kinase domain of cKIT) were 26%, 0% and 7%, respectively.

`CNC(=O)c1cc(Oc2ccc3nc(N[C@H]4CC[C@@H](NC(=O)[C@@H]5CCCO5)CC4)sc3c2)ccn1` [Compound 136]: the inhibition (usually the change of the read-out against control, counted positive when it falls) at 1 µM in test [1] (compounds of Table 3) turned out to be 86%; on kinase domain of PDGFRβ (compounds of Table 3) it was 0%; on kinase domain of cKIT (compounds of Table 3) it was 3%.

For `CNC(=O)c1cc(Oc2ccc3nc(NCc4c(F)cccc4Cl)oc3c2)ccn1` [Compound 78, 4-[2-(2-Chloro-6-fluoro-benzylamino)-benzooxazol-6-yloxy]-pyridine-2-carboxylic acid methylamide], the inhibition at 1 µM in test [1] worked out at 87%; on kinase domain of PDGFRβ, 0%; on kinase domain of cKIT it was 9%.

For the compound `CNC(=O)c1cc(Oc2ccc3nc(NCC4(C(=O)NC)CCCCC4)oc3c2)ccn1` [Compound 112, 4-{2-[(1-Methylcarbamoyl-cyclohexylmethyl)-amino]-benzooxazol-6-yloxy}-pyridine-2-carboxylic acid methylamide], the results for the inhibition at 1 µM (in test [1]; on kinase domain of PDGFRβ; on kinase domain of cKIT) were 28%, 5% and 0%, respectively.

As for `CNC(=O)c1cc(Oc2ccc3nc(NC4CCCC(NC(C)=O)C4)sc3c2)ccn1` (stereo not drawn) [Example 296, 4-(2-(3-acetamidocyclohexylamino)benzo[d]thiazol-6-yloxy)-N-methylpicolinamide], the inhibition at 1 µM in test [1] (compounds of Table 3) was 97%; at kinase domain of PDGFRβ (compounds of Table 3), 9%; at kinase domain of cKIT (compounds of Table 3), 1%.

In the case of `CNC(=O)c1cc(Oc2ccc3nc(NCC4CCCO4)oc3c2)ccn1` (stereo not drawn) [Compound 102, 4-{2-[(Tetrahydro-furan-2-ylmethyl)-amino]-benzooxazol-6-yloxy}-pyridine-2-carboxylic acid methylamide], the inhibition at 1 µM came out at 83% in test [1], 0% on kinase domain of PDGFRβ and 14% on kinase domain of cKIT.

Turning to “4-(2-Cyclobutylamino- benzooxazol-6-yloxy)- pyridine-2-carboxylic acid methylamide [Compound 22]”, in test [1] (compounds of Table 4), the CSF-1R percent inhibition is listed as 100%. Further, the PDGFRβ percent inhibition on kinase domain of PDGFRβ (compounds of Table 4) is 90%. In addition, on kinase domain of cKIT (compounds of Table 4), the cKit percent inhibition is 89%.

Take `CNC(=O)c1cc(Oc2ccc3nc(Nc4ccc(Cl)c(C(F)(F)F)c4)sc3c2)ccn1` [Compound 126, 4-[2-(4-Chloro-3-trifluoromethyl-phenylamino)-benzothiazol-6-yloxy]-pyridine-2-carboxylic acid methylamide]: the values for the inhibition at 1 µM (in test [1]; at kinase domain of PDGFRβ; at kinase domain of cKIT) were 68%, 99% and 83%, respectively.

In the case of `CNC(=O)c1cc(Oc2ccc3nc(N[C@H]4c5ccccc5C[C@H]4O)oc3c2)ccn1` [Compound 49, 4-[2-((1S,2R)-2-Hydroxy-indan-1-ylamino)-benzooxazol-6-yloxy]-pyridine-2-carboxylic acid methylamide], the results for the inhibition at 1 µM (in test [1]; on kinase domain of PDGFRβ; at kinase domain of cKIT) were 55%, 25% and 63%, respectively.

`CNC(=O)c1cc(Oc2ccc3nc(N[C@H]4CCCC[C@H]4N)sc3c2)ccn1` [Example 292, 4-(2-((1S,2R)-2-aminocyclohexylamino)benzo[d]thiazol-6-yloxy)-N-methylpicolinamide]: the inhibition at 1 µM in test [1] (compounds of Table 3) turned out to be 95%; on kinase domain of PDGFRβ (compounds of Table 3) it was 0%; on kinase domain of cKIT (compounds of Table 3), 3%.

In the case of `CNC(=O)c1cc(Oc2ccc3nc(N[C@H]4CC[C@@H](NC(=O)[C@@H]5CCCN5C)CC4)sc3c2)ccn1` [Compound 137], the figures for the inhibition at 1 µM (in test [1] (compounds of Table 3); on kinase domain of PDGFRβ (compounds of Table 3); on kinase domain of cKIT (compounds of Table 3)) were 71%, 2% and 8%, respectively.

For `CNC(=O)c1cc(Oc2ccc3nc(NCC(C)C)oc3c2)ccn1` [Compound 99, 4-(2-Isobutylamino-benzooxazol-6-yloxy)-pyridine-2-carboxylic acid methylamide], the values for the inhibition at 1 µM (in test [1]; at kinase domain of PDGFRβ; on kinase domain of cKIT) were 63%, 9% and 12%, respectively.

On to `CNC(=O)c1cc(Oc2ccc3nc(NC4CCN(Cc5ccccc5)CC4)oc3c2)ccn1` [Compound 103, 4-[2-(1-Benzyl-piperidin-4-ylamino)-benzooxazol-6-yloxy]-pyridine-2-carboxylic acid methylamide], for which the results for the inhibition at 1 µM (in test [1]; at kinase domain of PDGFRβ; on kinase domain of cKIT) were 60%, 14% and 8%, respectively.

Consider `N#Cc1cc(Oc2ccc3nc(NCC4CCCCC4)oc3c2)ccn1` [Compound 82, 4-[2-(Cyclohexylmethyl-amino)-benzooxazol-6-yloxy]-pyridine-2-carbonitrile], for which the values for the inhibition at 1 µM (in test [1]; at kinase domain of PDGFRβ; at kinase domain of cKIT) were 46%, 0% and 9%, respectively.

On to `CNC(=O)c1cc(Oc2ccc3nc(N(C)Cc4ccccc4)oc3c2)ccn1` [Compound 106, 4-[2-(Benzyl-methyl-amino)-benzooxazol-6-yloxy]-pyridine-2-carboxylic acid methylamide], for which the values for the inhibition at 1 µM (in test [1]; on kinase domain of PDGFRβ; at kinase domain of cKIT) were 99%, 0% and 2%, respectively.

For the compound `CN(C)C(=O)c1cc(Oc2ccc3nc(N[C@@H]4CCCC[C@H]4O)sc3c2)ccn1` [Compound 10], the inhibition at 1 µM in test [1] (compounds of Table 3) amounted to 67%; at kinase domain of PDGFRβ (compounds of Table 3), 9%; at kinase domain of cKIT (compounds of Table 3), 0%.

For the compound `CNC(=O)c1cc(Oc2ccc3nc(N[C@H]4CCCC[C@H]4NC(=O)[C@H]4CCCO4)sc3c2)ccn1` [Example 309, N-methyl-4-(2-((1S,2R)-2-((R)-tetrahydrofuran-2-carboxamido)cyclohexylamino)benzo[d]thiazol-6-yloxy)picolinamide], the inhibition at 1 µM in test [1] was 74%; at kinase domain of PDGFRβ, 13%; at kinase domain of cKIT it was 6%.

For the compound `CNC(=O)c1cnccc1Oc1ccc2nc(N[C@@H]3CCCC[C@H]3O)sc2c1` [Example 291, 4-(2-((1R,2R)-2-hydroxycyclohexylamino)benzo[d]thiazol-6-yloxy)-N-methylnicotinamide], the inhibition at 1 µM in test [1] (compounds of Table 3) worked out at 48%; on kinase domain of PDGFRβ (compounds of Table 3), 0%; on kinase domain of cKIT (compounds of Table 3), 4%.

`CC(=O)N[C@H]1CCN(c2cc(Oc3ccc4nc(N[C@@H]5CCCC[C@H]5O)sc4c3)ccn2)C1` [Cmpd 178, N-((S)-1-(4-(2-((1R,2R)-2-hydroxycyclohexylamino)benzo[d]thiazol-6-yloxy)pyridin-2-yl)pyrrolidin-3-yl)acetamide]: the inhibition at 1 µM in test [1] (compounds of Table 3) was 82%; on kinase domain of PDGFRβ (compounds of Table 3) it was -3%; on kinase domain of cKIT (compounds of Table 3), 17%.

Regarding `CNC(=O)c1cc(Oc2ccc3nc(N[C@@H]4CCC(=O)NC4)sc3c2)ccn1` [Compound 86], the inhibition at 1 µM was determined as 63% in test [1] (compounds of Table 3), 32% at kinase domain of PDGFRβ (compounds of Table 3) and 15% on kinase domain of cKIT (compounds of Table 3).

As for `CCN1CCC[C@H]1CNC(=O)c1cc(Oc2ccc3nc(N[C@@H]4CCCC[C@H]4O)sc3c2)ccn1` [Compound 20], the inhibition at 1 µM in test [1] (compounds of Table 3) came to 76%; at kinase domain of PDGFRβ (compounds of Table 3), 0%; on kinase domain of cKIT (compounds of Table 3), 0%.

Regarding `CNC(=O)c1cc(Oc2ccc3nc(NCc4cccnc4)oc3c2)ccn1` [Compound 59, 4-{2-[(Pyridin-3-ylmethyl)-amino]-benzooxazol-6-yloxy}-pyridine-2-carboxylic acid methylamide], the inhibition at 1 µM amounted to 97% in test [1], 0% at kinase domain of PDGFRβ and 21% on kinase domain of cKIT.
